Test results as given in patent US20030130355A1, “Therapeutic agents” (priority 2000, published 2003).

Legend:
[1] = test system: conscious, telemetered rats; assay type: in vivo, rat
Description: The methods used were similar to those described in:
Brockway, B P, Mills, P A & Azar, S H (1991) A new method for continuous chronic measurement of blood pressure, heart rate and activity in the rat via radio-telemetry. Clinical and Experimental Hypertension—Theory and Practice A13(5), 885-895 and
Guiol, C, Ledoussal, C & Surgé, J-M (1992) A radiotelemetry system for chronic measurement of blood pressure and heart rate in the unrestrained rat. Validation of method. Journal of Pharmacological and Toxicological Methods 28, 99-105.
In brief, male rats (n=10) were implanted with a telemetry device for the measurement of arterial blood pressure and heart rate. Two weeks following implantation each animal received a single oral dose of vehicle, one dose of sibutramine or a combination of sibutramine and flesinoxan in a cross-over design. Measurements of blood pressure and heart rate were taken from each rat in sequence every three minutes for nine hours following drug administration and averaged into appropriate time-bins. Statistical comparisons were by the least significant difference or multiple t-test.
In FIGS. 1 and 2, shaded circles relate to the administration of vehicle alone p.o., shaded squares relate to the administration of sibutramine at 10 mg/kg p.o. and shaded triangles relate to the administration of sibutramine at 10 mg/kg p.o. together with flesinoxan at 30 mg/kg p.o. Statistical comparisons made by the least significant difference or multiple t-test are shown as *=p<0.05 versus vehicle and t=p<0.05 versus sibutramine.

[2] = test system: rats; conditions: cited from earlier work

CC(C)CC(N(C)C)C1(c2ccc(Cl)cc2)CCC1 (centres unmarked) [sibutramine, N-{1-[1-(4-chlorophenyl)cyclobutyl]-3-methylbutyl}-N,N-dimethylamine]
mean arterial blood pressure ([1]; sibutramine 10 mg/kg p.o. alone, versus vehicle, conscious telemetered male rats, nine hours, FIG. 1): significant increase | heart rate ([1]; sibutramine 10 mg/kg p.o. alone, conscious telemetered rats, FIG. 2): increase in heart rate

CCCN(CCC)C1CCc2cccc(O)c2C1 (centres unmarked) [8-OH-DPAT]
food intake [2]: increases food intake

O=C(NCCN1CCN(c2cccc3c2OC[C@H](CO)O3)CC1)c1ccc(F)cc1 [flesinoxan]
effect on the increase in mean arterial blood pressure induced by sibutramine ([1]; flesinoxan 30 mg/kg p.o. co-administered with sibutramine 10 mg/kg p.o., FIG. 1): completely reversed | effect on the increase in heart rate produced by sibutramine ([1]; flesinoxan 30 mg/kg p.o. co-administered with sibutramine 10 mg/kg p.o., FIG. 2): prevented the increase in heart rate
